In article PMC9403976, “Elucidating the path to Plasmodium prolyl-tRNA synthetase inhibitors that overcome halofuginone resistance” (Nature Communications, 2022):
Values joined by “and” are separate entries in the source; they are usually repeats but may differ in a detail not shown here. Equal entries are not always repeated. Where two headings read alike, the source gives them in different places.

What was measured:
[1] = system: P. falciparum Dd2-2D4; assay: P. falciparum asexual blood stage (ABS) growth assay, SYBR Green, 72 h, wild-type parasites; type: cell-based, Plasmodium falciparum; settings: wildtype (Dd2-2D4); 10 μM
[2] = target: HsProRS (Homo sapiens, UniProt P07814); assay: TR-FRET ligand displacement assay with tracer MAT379 (CoraFluor-1-Halo and anti-His6 antibody formats); type: binding; set-up: made in house; host or cells: E. coli SoluBL-21; settings: for TR-FRET dose-response, normalized signal (SI Fig 11): individual replicates
[3] = target: T1, PfcProRS (Plasmodium falciparum, UniProt Q8I5R7); type: binding; settings: for dose-response signal (normalized), SI Fig 8: single replicates
T1 construct: made in house; host or cells: E. coli SoluBL-21
T1 sequence (Q8I5R7 249-746): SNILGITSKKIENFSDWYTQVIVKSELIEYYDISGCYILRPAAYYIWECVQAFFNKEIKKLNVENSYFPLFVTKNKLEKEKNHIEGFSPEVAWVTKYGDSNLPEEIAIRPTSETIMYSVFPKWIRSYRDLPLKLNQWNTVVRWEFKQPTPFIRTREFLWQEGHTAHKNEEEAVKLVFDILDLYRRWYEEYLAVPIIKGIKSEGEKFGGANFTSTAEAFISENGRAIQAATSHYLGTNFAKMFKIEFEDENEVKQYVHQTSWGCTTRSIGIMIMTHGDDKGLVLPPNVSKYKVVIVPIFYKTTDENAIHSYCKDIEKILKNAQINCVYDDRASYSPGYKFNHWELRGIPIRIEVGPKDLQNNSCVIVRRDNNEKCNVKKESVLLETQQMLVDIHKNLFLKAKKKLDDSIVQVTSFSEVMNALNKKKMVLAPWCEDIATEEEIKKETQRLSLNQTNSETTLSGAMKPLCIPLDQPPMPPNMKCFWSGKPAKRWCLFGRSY

Chain of HsProRS (P07814 996-1512): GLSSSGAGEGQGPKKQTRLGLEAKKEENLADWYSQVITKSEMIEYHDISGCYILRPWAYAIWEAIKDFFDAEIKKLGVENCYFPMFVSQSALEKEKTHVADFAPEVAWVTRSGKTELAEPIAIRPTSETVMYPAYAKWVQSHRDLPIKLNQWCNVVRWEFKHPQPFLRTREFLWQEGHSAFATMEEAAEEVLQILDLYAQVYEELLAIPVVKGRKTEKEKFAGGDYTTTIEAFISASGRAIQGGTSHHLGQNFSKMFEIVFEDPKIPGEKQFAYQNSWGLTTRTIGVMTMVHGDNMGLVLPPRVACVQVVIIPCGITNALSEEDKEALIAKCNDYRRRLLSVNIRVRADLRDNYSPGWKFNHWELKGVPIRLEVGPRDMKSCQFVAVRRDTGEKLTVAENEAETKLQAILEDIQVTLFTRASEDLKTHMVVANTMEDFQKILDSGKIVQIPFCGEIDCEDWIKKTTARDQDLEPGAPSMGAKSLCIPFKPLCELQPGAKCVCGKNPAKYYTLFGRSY

## C[C@@H]1CCC[C@H](C)N1C(=O)Nc1nccnc1C(=O)NC1Cc2ccccc2C1 [compound 19]
[1]
  % signal at 10 μM, wildtype (Dd2-2D4): 67.3%
[2]
  IC50: > 10 µM
[2]; HsProRS (KD [nM]) + 100 μM proline mean, + 100 μM proline
  Kd: 1320 nM
[2]; Log[inhibitor] (M) -5.000
  normalized TR-FRET ligand displacement signal, dose-response replicates (SI Fig 6): 6.53E-01 and 6.39E-01 and 5.91E-01
  TR-FRET dose-response, normalized signal (SI Fig 11): 8.15E-01 and 7.82E-01 and 8.24E-01
[2]; Log[inhibitor] (M) -5.301
  normalized TR-FRET ligand displacement signal, dose-response replicates (SI Fig 6): 8.82E-01 and 7.60E-01 and 7.73E-01
  TR-FRET dose-response, normalized signal (SI Fig 11): 9.03E-01 and 8.79E-01 and 9.19E-01
[2]; Log[inhibitor] (M) -5.601
  normalized TR-FRET ligand displacement signal, dose-response replicates (SI Fig 6): 8.80E-01 (2×) and 8.74E-01
[2]; Log[inhibitor] (M) -5.602
  TR-FRET dose-response, normalized signal (SI Fig 11): 9.30E-01 and 1.01E+00 and 9.11E-01
[2]; Log[inhibitor] (M) -5.904
  normalized TR-FRET ligand displacement signal, dose-response replicates (SI Fig 6): 9.78E-01 and 8.58E-01 and 8.56E-01
  TR-FRET dose-response, normalized signal (SI Fig 11): 9.97E-01 and 1.07E+00 and 9.73E-01
[2]; Log[inhibitor] (M) -6.205
  TR-FRET dose-response, normalized signal (SI Fig 11): 1.07E+00 and 9.89E-01 and 1.03E+00
[2]; Log[inhibitor] (M) -6.208
  normalized TR-FRET ligand displacement signal, dose-response replicates (SI Fig 6): 1.01E+00 and 9.70E-01 and 9.45E-01
[2]; Log[inhibitor] (M) -6.506
  TR-FRET dose-response, normalized signal (SI Fig 11): 1.02E+00 and 1.05E+00 and 9.88E-01
[2]; Log[inhibitor] (M) -6.509
  normalized TR-FRET ligand displacement signal, dose-response replicates (SI Fig 6): 9.25E-01 and 1.05E+00 and 8.66E-01
[2]; Log[inhibitor] (M) -6.796
  normalized TR-FRET ligand displacement signal, dose-response replicates (SI Fig 6): 1.10E+00 and 9.97E-01 and 1.01E+00
  TR-FRET dose-response, normalized signal (SI Fig 11): 9.68E-01 and 1.04E+00 and 9.56E-01
[2]; Log[inhibitor] (M) -7.097
  TR-FRET dose-response, normalized signal (SI Fig 11): 1.08E+00 (2×) and 9.97E-01
[2]; Log[inhibitor] (M) -7.108
  normalized TR-FRET ligand displacement signal, dose-response replicates (SI Fig 6): 1.04E+00 (2×) and 1.01E+00
[2]; Log[inhibitor] (M) -7.407
  TR-FRET dose-response, normalized signal (SI Fig 11): 1.09E+00 and 9.94E-01 and 1.12E+00
[2]; Log[inhibitor] (M) -7.409
  normalized TR-FRET ligand displacement signal, dose-response replicates (SI Fig 6): 9.88E-01 and 9.12E-01 and 1.00E+00
[2]; Log[inhibitor] (M) -7.708
  TR-FRET dose-response, normalized signal (SI Fig 11): 1.07E+00 and 1.00E+00 and 1.08E+00
[2]; Log[inhibitor] (M) -7.710
  normalized TR-FRET ligand displacement signal, dose-response replicates (SI Fig 6): 9.99E-01 and 1.02E+00 and 9.53E-01
[2]; Log[inhibitor] (M) -8.000
  normalized TR-FRET ligand displacement signal, dose-response replicates (SI Fig 6): 9.74E-01 and 8.92E-01 and 8.64E-01
[2]; Log[inhibitor] (M) -8.018
  TR-FRET dose-response, normalized signal (SI Fig 11): 1.06E+00 and 1.03E+00 and 1.01E+00
[2]; Log[inhibitor] (M) -8.301
  normalized TR-FRET ligand displacement signal, dose-response replicates (SI Fig 6): 9.68E-01 and 9.13E-01 and 9.38E-01
[2]; Log[inhibitor] (M) -8.319
  TR-FRET dose-response, normalized signal (SI Fig 11): 9.44E-01 and 9.92E-01 and 9.43E-01
[2]; Log[inhibitor] (M) -8.602
  normalized TR-FRET ligand displacement signal, dose-response replicates (SI Fig 6): 9.46E-01 and 9.29E-01 and 1.00E+00
[2]; Log[inhibitor] (M) -8.620
  TR-FRET dose-response, normalized signal (SI Fig 11): 1.03E+00 and 1.01E+00 and 7.25E-01
[2]; Log[inhibitor] (M) -8.921
  TR-FRET dose-response, normalized signal (SI Fig 11): 1.02E+00 and 9.26E-01 and 9.67E-01
[2]; Log[inhibitor] (M) -9.000
  normalized TR-FRET ligand displacement signal, dose-response replicates (SI Fig 6): 9.21E-01 and 9.72E-01 and 9.38E-01
[2]; Log[inhibitor] (M) -9.097
  TR-FRET dose-response, normalized signal (SI Fig 11): 9.79E-01 and 1.10E+00 and 1.04E+00
[2]; Log[inhibitor] (M) -9.301
  normalized TR-FRET ligand displacement signal, dose-response replicates (SI Fig 6): 8.73E-01 and 8.54E-01 and 9.42E-01
[2]; no added proline/ATP (-), 10 μM
  HsProRS % signal at 10 μM: 80.7%
[3]; Log[inhibitor] (M) -5.000
  dose-response signal (normalized), SI Fig 8: 3.96E-01 and 1.71E-01 and 2.62E-01
[3]; Log[inhibitor] (M) -5.301
  dose-response signal (normalized), SI Fig 8: 5.52E-01 and 5.02E-01 and 5.09E-01
[3]; Log[inhibitor] (M) -5.601
  dose-response signal (normalized), SI Fig 8: 8.00E-01 and 7.91E-01 and 8.42E-01
[3]; Log[inhibitor] (M) -5.904
  dose-response signal (normalized), SI Fig 8: 7.54E-01 and 9.47E-01 and 8.47E-01
[3]; Log[inhibitor] (M) -6.208
  dose-response signal (normalized), SI Fig 8: 1.02E+00 and 9.13E-01 and 1.08E+00
[3]; Log[inhibitor] (M) -6.509
  dose-response signal (normalized), SI Fig 8: 9.59E-01 and 1.03E+00 and 9.76E-01
[3]; Log[inhibitor] (M) -6.796
  dose-response signal (normalized), SI Fig 8: 1.09E+00 and 1.00E+00 and 1.08E+00
[3]; Log[inhibitor] (M) -7.108
  dose-response signal (normalized), SI Fig 8: 9.66E-01 and 9.00E-01 and 9.04E-01
[3]; Log[inhibitor] (M) -7.409
  dose-response signal (normalized), SI Fig 8: 9.53E-01 and 1.01E+00 and 9.35E-01
[3]; Log[inhibitor] (M) -7.710
  dose-response signal (normalized), SI Fig 8: 1.09E+00 and 9.53E-01 and 1.01E+00
[3]; Log[inhibitor] (M) -8.000
  dose-response signal (normalized), SI Fig 8: 1.12E+00 and 1.07E+00 and 9.69E-01
[3]; Log[inhibitor] (M) -8.301
  dose-response signal (normalized), SI Fig 8: 1.02E+00 (2×) and 1.14E+00
[3]; Log[inhibitor] (M) -8.602
  dose-response signal (normalized), SI Fig 8: 1.07E+00 and 8.94E-01 and 1.04E+00
[3]; Log[inhibitor] (M) -9.000
  dose-response signal (normalized), SI Fig 8: 1.15E+00 and 8.96E-01 and 9.87E-01
[3]; Log[inhibitor] (M) -9.301
  dose-response signal (normalized), SI Fig 8: 8.48E-01 and 9.64E-01 and 1.02E+00
[3]; SI Fig 16a, values on -log scale
  PfcProRS -- best Kd: 5.928
